# Measured values as given in patent US11660339B2, “Methods of treating cancer using compositions of antibodies and carrier proteins with antibody pretreatment” (Mayo Foundation for Medical Education and Research, priority 2015, dated 2023).
# Tested on: A375 human melanoma cells
# Assay: A375 human melanoma xenograft in athymic nude mice: tumor volume and survival
# Assay type: in vivo
# Source text: Data is represented as tumor volume in mm^3.
# Survival was again assessed at day 40.
substance,measurement,setting,value
bevacizumab,therapeutic effect in the experiment (in words),"12 mg/kg BEV alone, 1.2 mg/kg BEV pretreatment before AB160",not therapeutic
same,Percent Alive on day 15,"day 15 post treatment, 12 mg/kg BEV, 30 mg/kg ABX, AB160, or 1.2 mg/kg BEV 24 hr before AB160",0%
same,median survival,survival assessed at day 40,7 days
